Measured values taken from US10111822B2, “External dermal composition for anti-ageing and method for producing the same” (Hayashibara Co., Ltd., priority 2012, dated 2018).

What was measured:
Filaggrin = assay: Expression of proliferation marker protein filaggrin in NHEK cells (Western); format: cell-based, human; conditions: 5 days, control regarded as 50%
Experimental: Normal human epidermal keratinocytes from neonatal foreskin (NHEK cells) were prepared into 2.5×10^5 cells/mL with EpiLife medium, inoculated to 12-well plates in a volume of 1 mL/well, and cultured at 37° C. for one day under a 5% v/v CO2 condition. Thereafter, each supernatant was removed, and a medium, to which ascorbic acid 2-glucoside had been added to give a final concentration of 300 or 600 μM, was added to the resulting cells in a volume of 1 mL/well, followed by culturing the cells at 37° C. for two days under a 5% v/v CO2 condition. Another cell culture system, which had been similarly cultured in a medium free of ascorbic acid 2-glucoside, was provided as a control. The cells cultured with ascorbic acid 2-glucoside were further added with a medium supplemented with the same concentration of sodium salt of ascorbic acid 2-glucoside as that in the above medium in a volume of 1 mL/well, and cultured for another three days under the same conditions. […] Each of the resulting extract was centrifuged to collect a supernatant, and a part of which was subjected to protein quantification. […]

ZO-1 = assay: TJ-related protein ZO-1 in NHEK cells (Western); format: cell-based, human; conditions: 3 days, CaCl2 positive control = 100%, no addition 38%
Experimental: The following experiment was conducted to examine the effect of ascorbic acid 2-glucoside on the production of TJ-related proteins that constitute cell-cell adhesion structures by focusing on occludin and ZO-1 that are focused on as TJ-related proteins known to exist in a granular layer of epidermis: As a model for typical normal human epidermal cells, NHEK cells were suspended in EpiLife medium (pH 7.4); inoculated to 12-well microplates at a cell density of 1×10^5 cells/well; cultured overnight under the conditions of 37° C. and 5% v/v CO2; and further cultured for three days under the conditions of 37° C. and 5% v/v CO2 after adding either CaCl2 as a positive control to each well to give a final concentration of 0.5 mM, or “AA2G”, a product name of a particulate composition containing anhydrous crystalline ascorbic acid 2-glucoside, commercialized by Hayashibara Co., Ltd., Okayama, Japan, to give a final concentration of 0.5 or 1 mM. […] A sample of 20 μg protein for each lane per each cell extract in respective wells was applied to sodium dodecyl sulfate polyacrylamide gel electrophoresis (SDS-PAGE) with 10% w/v SDS containing DTT, followed by assaying the concentration of occludin or ZO-1 in each cell extract with “Luminate Western HRP Substrates”, a product name of a premixed, ready-to-use chemiluminescent detection reagent using an internal standard “α-Tubulin”, commercialized by Merck KGaA, Darmstadt, Germany, wherein there were used “F-11”, a product name of an anti-occludin mouse monoclonal antibody, commercialized by Santa Cruz Biotechnology, Inc., Texas, USA, or “ZO1-1A12”, a product name of a ZO-1 mouse monoclonal antibody, commercialized by Invitrogen Corporation, Calif., USA, was used as a first antibody; and “PO447”, a product name of a horseradish peroxidase (HRPO) labeled anti-mouse IgG, commercialized by DAKO Japan Inc., Tokyo, Japan, or “PO448”, a product name of an HRPO-labeled anti-rabbit IgG, commercialized by DAKO Japan Inc., Tokyo, Japan, as a secondary antibody. […]

## O=C1O[C@H]([C@@H](O)CO)C(O)=C1O[C@H]1O[C@H](CO)[C@@H](O)[C@H](O)[C@H]1O [ascorbic acid 2-glucoside, 2-O-α-D-glucosyl-L-ascorbic acid]
Filaggrin; 300 μM
  Relative expression level, Filaggrin: 65%
Filaggrin; 600 μM
  Relative expression level, Filaggrin: 71%
ZO-1; 0.5 mM
  ZO-1 Concentration in cell extract: 72%
ZO-1; 1 mM
  ZO-1 Concentration in cell extract: 92%
